Data as given in patent publication US20100048950A1 (BOEHRINGER INGELHEIM INTERNATIONAL GMBH, priority 2007, published 2010).

Key:
[1] = target: T1, human glucocorticoid receptor (GR) complex (Homo sapiens, UniProt P04150); assay: Glucocorticoid receptor competitive binding assay (fluorescence polarization); conditions: competition with TAMRA-labeled dexamethasone, read-out: potent activity (IC50) in the GR binding assay
T1 construct: made in house; host or cells: insect expression system (baculovirus lysate)
T1 sequence (P04150 1-777): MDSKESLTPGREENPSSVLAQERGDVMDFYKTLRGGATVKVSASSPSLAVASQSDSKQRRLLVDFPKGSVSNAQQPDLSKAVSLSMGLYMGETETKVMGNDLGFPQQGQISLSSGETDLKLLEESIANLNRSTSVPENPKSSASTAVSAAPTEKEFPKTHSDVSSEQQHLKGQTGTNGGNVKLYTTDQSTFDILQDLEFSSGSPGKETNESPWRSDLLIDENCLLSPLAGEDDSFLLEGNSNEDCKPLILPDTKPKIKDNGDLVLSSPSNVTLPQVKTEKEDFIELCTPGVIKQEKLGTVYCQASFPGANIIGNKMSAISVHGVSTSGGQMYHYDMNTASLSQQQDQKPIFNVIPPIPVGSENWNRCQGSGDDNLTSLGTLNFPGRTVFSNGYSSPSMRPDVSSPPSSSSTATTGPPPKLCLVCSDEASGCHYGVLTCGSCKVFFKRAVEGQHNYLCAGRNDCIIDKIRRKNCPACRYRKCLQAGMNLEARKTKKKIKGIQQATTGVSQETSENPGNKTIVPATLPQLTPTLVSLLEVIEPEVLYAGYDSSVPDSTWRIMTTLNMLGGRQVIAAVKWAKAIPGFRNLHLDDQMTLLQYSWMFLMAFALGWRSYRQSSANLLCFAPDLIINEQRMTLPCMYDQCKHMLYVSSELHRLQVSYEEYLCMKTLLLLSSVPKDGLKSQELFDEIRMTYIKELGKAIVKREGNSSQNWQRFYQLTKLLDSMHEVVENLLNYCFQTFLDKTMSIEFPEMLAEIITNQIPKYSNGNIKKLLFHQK
In short: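 Human GR complex in baculovirus insect-cell lysate (1:170) competed against 15 nM TAMRA-dexamethasone stock for 1 h at room temperature. Buffer: TES/KCl/molybdate/EDTA/CHAPS/glycerol/DTT, pH 7.4, 1% DMSO final. FP read at 550/580 nm; IC50 from 4-parameter logistic fit.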

glucocorticoid receptor = assay: Agonist activity in one or more of the above assays (GR cell assays); assay type: cell-based; conditions: in one or more of the above assays (assay not specified)
Description: Dexamethasone, a synthetic ligand to the glucocorticoid receptor (GR), induces expression of aromatase in human foreskin fibroblast cells. The activity of aromatase is measured by the conversion of testosterone to estradiol in culture media.
Human foreskin fibroblast cells (ATCC Cat. No. CRL-2429, designation CCD112SK) are plated on 96 well plates at 50,000 cells per well 5 days before use, in Iscove's Modified Dulbecco's Media (GibcoBRL Life Technologies Cat No. 12440-053) supplemented with 10% charcoal filtered FBS (Clonetech Cat No. SH30068) and Gentamycin (GibcoBRL Life Technologies Cat. No. 15710-064). On the day of the experiment, the media in the wells is replaced with fresh media. Cells are treated with test compounds to final concentrations of 10^−5 M to […], and testosterone to a final concentration of 300 ng/mL. Each well has a total volume of 100 μL. Samples are made in duplicates. Control wells include: (a) wells that receive testosterone only, and (b) wells that receive testosterone plus 2 μM of dexamethasone to provide maximum induction of aromatase. Plates are incubated at 37° C. overnight (15 to 18 hours), and supernatants are harvested at the end of incubation. Estradiol in the supernatant is measured using ELISA kits for estradiol (made by ALPCO, obtained from American Laboratory Products Cat. No. 020-DR-2693) according to the manufacture's instruction. The amount of estradiol is inversely proportional to the ELISA signals in each well. The extent of aromatase induction by test compounds is expressed as a relative percentage to dexamethasone. EC50 values of test compounds are derived by non-linear curve fitting.
Human foreskin fibroblast cells produce IL-6 in response to stimulation by pro-inflammatory cytokine IL-1.
Human foreskin fibroblast cells (ATCC Cat. No. CRL-2429) are plated on 96 well plates at 5,000 cells per well the day before use, in Iscove's Modified Dulbecco's Media (GibcoBRL Life Technologies Cat. No. 12440-053) supplemented with 10% charcoal filtered FBS (Clonetech Cat. No. SH30068) and Gentamycin (GibcoBRL Life Technologies Cat. No. 15710-064). On the next day, media in the wells is replaced with fresh media. Cells are treated with IL-1 (rhIL-1α, R&D Systems Cat. No. 200-LA) to a final concentration of 1 ng/mL, and with test compounds to final concentrations of 10^−5 M to 10^−8 M, in a total volume of 200 μL per well. Samples are done in duplicates. […] Positive control wells receive IL-1 only and represent maximum (or 100%) amount of IL-6 production. Plates are incubated at 37° C. overnight (15 to 18 hours), and supernatants are harvested at the end of incubation. IL-6 levels in the supernatants are determined by the ELISA kits for IL-6 (MedSystems Diagnostics GmbH, Vienna, Austria, Cat. No. BMS213TEN) according to manufacture's instructions. The extent of inhibition of IL-6 by test compounds is expressed in percentage relative to positive controls. IC50 values of test compounds are derived by non-linear curve fitting.
Evaluation of agonist or antagonist activity of compounds binding to the glucocorticoid receptor may be determined by any of the assays.
Testing of compounds for agonist or antagonist activity in induction of tyrosine aminotransferase (TAT) in rat hepatoma cells.
H4-II-E-C3 cells were incubated overnight in 96 well plates (20,000 cells/100 μL/well) in MEM medium containing 10% heat inactivated FBS and 1% nonessential amino acids. On the next day, cells were stimulated with the indicated concentrations of dexamethasone or test compound (dissolved in DMSO, final DMSO concentration 0.2%) for 18 hours. Control cells were treated with 0.2% DMSO. After 18 hours, the cells were lysed in a buffer containing 0.1% Triton X-100 and the TAT activity was measured in a photometric assay using tyrosine and alpha-ketoglutarate as substrates. […]

SMILES	IC50 [1]	activity as an agonist of the glucocorticoid receptor function (glucocorticoid receptor)	melting point
CC[C@@H](CNc1ccc(C)cc1C)NS(=O)(=O)c1c(N)cc(Cl)cc1Cl [2-Amino-4,6-dichloro-N—{(S)-1-[(2,4-dimethylphenylamino)methyl]propyl}benzenesulfonamide]	≤ 100 nM	activity as an agonist	–
Cc1cc(C)c(S(=O)(=O)NC(CNc2cccc3c(C#N)cccc23)C(F)(F)F)c(C)c1 (stereo not shown) [N-{1-[(5-Cyanonephthalen-1-ylamino)methyl]-2,2,2-trifluoroethyl}-2,4,6-trimethyl-benzenesulfonamide]	≤ 100 nM	activity as an agonist	–
Cc1cc(C)c(S(=O)(=O)NC(CSc2cccc3ccccc23)C(F)(F)F)c(C)c1 (stereo not shown) [2,4,6-Trimethyl-N-[2,2,2-trifluoro-1-(naphthalen-1-ylsulfanylmethyl)ethyl]benzenesulfonamide]	≤ 100 nM	activity as an agonist	–
CC[C@@H](CNc1cccc2ccccc12)NS(=O)(=O)c1c(N)cc(Cl)cc1Cl [2-Amino-4,6-dichloro-N-[(S)-1-(naphthalen-1-ylaminomethyl)propyl]benzenesulfonamide]	≤ 100 nM	activity as an agonist	–
Cc1cc(C)c(S(=O)(=O)NC(CNc2ccc(Cl)c3ccccc23)C(F)(F)F)c(C)c1 (stereo not shown) [N-{1-[(4-Chloronaphthalen-1-ylamino)methyl]-2,2,2-trifluoroethyl}-2,4,6-trimethylbenzenesulfonamide]	≤ 100 nM	activity as an agonist	–
Cc1cc(C)c(S(=O)(=O)NC(CNc2cccc3ccccc23)C(F)(F)F)c(C)c1 (stereo not shown) [2,4,6-Trimethyl-N-[2,2,2-trifluoro-1-(naphthalen-1-ylaminomethyl)ethyl]benzenesulfonamide]	≤ 100 nM	activity as an agonist	–
CC[C@@H](CNc1ccc(C)cc1C)NS(=O)(=O)c1c(N)cc(Cl)cc1Cl	–	–	151 °C
